Results taken from PubChem BioAssay (NCI).
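Five compound concentrations were applied to cells in 96-well plates for 48 hours; endpoints were derived by simple linear interpolation of the resulting dose-response curve. At the TGI there is no net growth.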

Key:
Assay in all cases: NCI anticancer screen, dose series, 48 h
LXFL 529 NSCLC = system: LXFL 529 NSCLC
COLO 205 colon = system: COLO 205 colon
SK-MEL-2 melanoma = system: SK-MEL-2 melanoma
SN12C renal = system: SN12C renal
HT29 colon = system: HT29 colon
SF-295 CNS = system: SF-295 CNS
SK-MEL-28 melanoma = system: SK-MEL-28 melanoma
SK-MEL-5 melanoma = system: SK-MEL-5 melanoma
NCI-H226 lung = system: NCI-H226 lung
DMS 114 small cell lung = system: DMS 114 small cell lung
LOX IMVI melanoma = system: LOX IMVI melanoma
M14 melanoma = system: M14 melanoma
U251 CNS = system: U251 CNS
RXF-631 renal = system: RXF-631 renal
HOP-18 NSCLC = system: HOP-18 NSCLC
CAKI-1 renal = system: CAKI-1 renal
TK-10 renal = system: TK-10 renal
CCRF-CEM leukemia = system: CCRF-CEM leukemia
OVCAR-3 ovarian = system: OVCAR-3 ovarian
SNB-75 CNS = system: SNB-75 CNS
OVCAR-4 ovarian = system: OVCAR-4 ovarian
SW-620 colon = system: SW-620 colon
KM20L2 colon = system: KM20L2 colon
NCI-H522 lung = system: NCI-H522 lung
SNB-78 CNS = system: SNB-78 CNS
UACC-257 melanoma = system: UACC-257 melanoma
HCC-2998 colon = system: HCC-2998 colon
HL-60(TB) leukemia = system: HL-60(TB) leukemia
EKVX NSCLC = system: EKVX NSCLC
DLD-1 colon = system: DLD-1 colon
HCT-116 colon = system: HCT-116 colon
OVCAR-5 ovarian = system: OVCAR-5 ovarian
SK-OV-3 ovarian = system: SK-OV-3 ovarian
UACC-62 melanoma = system: UACC-62 melanoma
786-0 renal = system: 786-0 renal
OVCAR-8 ovarian = system: OVCAR-8 ovarian
SNB-19 CNS = system: SNB-19 CNS
UO-31 renal = system: UO-31 renal
HCT-15 colon = system: HCT-15 colon
A549 NSCLC = system: A549 NSCLC
XF 498 CNS = system: XF 498 CNS
DMS 273 small cell lung = system: DMS 273 small cell lung
MALME-3M melanoma = system: MALME-3M melanoma
NCI-H23 lung = system: NCI-H23 lung
IGROV1 ovarian = system: IGROV1 ovarian
M19-MEL melanoma = system: M19-MEL melanoma
A498 renal = system: A498 renal
HOP-62 NSCLC = system: HOP-62 NSCLC
RXF 393 renal = system: RXF 393 renal
SF-268 CNS = system: SF-268 CNS
HOP-92 NSCLC = system: HOP-92 NSCLC
ACHN renal = system: ACHN renal
NCI-H460 lung = system: NCI-H460 lung
K-562 leukemia = system: K-562 leukemia
KM12 colon = system: KM12 colon
SF-539 CNS = system: SF-539 CNS
SR leukemia = system: SR leukemia
MOLT-4 leukemia = system: MOLT-4 leukemia
RPMI-8226 leukemia = system: RPMI-8226 leukemia

CCOC(=O)CCn1[nH]c(=O)c(Cl)c(Cl)c1=O
TGI (LXFL 529 NSCLC): > 100 µM | TGI (COLO 205 colon): > 100 µM | TGI (SK-MEL-2 melanoma): > 100 µM | TGI (SN12C renal): > 100 µM | TGI (HT29 colon): > 100 µM | TGI (SF-295 CNS): > 100 µM | TGI (SK-MEL-28 melanoma): > 100 µM | TGI (SK-MEL-5 melanoma): > 100 µM | TGI (NCI-H226 lung): > 100 µM | TGI (DMS 114 small cell lung): > 100 µM | TGI (LOX IMVI melanoma): > 100 µM | TGI (M14 melanoma): > 100 µM | TGI (U251 CNS): > 100 µM | TGI (RXF-631 renal): > 100 µM | TGI (HOP-18 NSCLC): > 100 µM | TGI (CAKI-1 renal): > 100 µM | TGI (TK-10 renal): > 100 µM | TGI (CCRF-CEM leukemia): > 100 µM | TGI (OVCAR-3 ovarian): > 100 µM | TGI (SNB-75 CNS): > 100 µM | TGI (OVCAR-4 ovarian): > 100 µM | TGI (SW-620 colon): > 100 µM | TGI (KM20L2 colon): > 100 µM | TGI (NCI-H522 lung): > 100 µM | TGI (SNB-78 CNS): > 100 µM | TGI (UACC-257 melanoma): > 100 µM | TGI (HCC-2998 colon): > 100 µM | TGI (HL-60(TB) leukemia): > 100 µM | TGI (EKVX NSCLC): > 100 µM | TGI (DLD-1 colon): > 100 µM | TGI (HCT-116 colon): > 100 µM | TGI (OVCAR-5 ovarian): > 100 µM | TGI (SK-OV-3 ovarian): > 100 µM | TGI (UACC-62 melanoma): > 100 µM | TGI (786-0 renal): > 100 µM | TGI (OVCAR-8 ovarian): > 100 µM | TGI (SNB-19 CNS): > 100 µM | TGI (UO-31 renal): > 100 µM | TGI (HCT-15 colon): > 100 µM | TGI (A549 NSCLC): > 100 µM | TGI (XF 498 CNS): > 100 µM | TGI (DMS 273 small cell lung): > 100 µM | TGI (MALME-3M melanoma): > 100 µM | TGI (NCI-H23 lung): > 100 µM | TGI (IGROV1 ovarian): > 100 µM | TGI (M19-MEL melanoma): > 100 µM | TGI (A498 renal): > 100 µM | TGI (HOP-62 NSCLC): > 100 µM | TGI (RXF 393 renal): > 100 µM | TGI (SF-268 CNS): > 100 µM | TGI (HOP-92 NSCLC): > 100 µM | TGI (ACHN renal): > 100 µM | TGI (NCI-H460 lung): > 100 µM | TGI (K-562 leukemia): > 100 µM

FC(F)(F)c1nc(-c2ccccc2)oc1Sc1nnc(Sc2oc(-c3ccccc3)nc2C(F)(F)F)s1
TGI (LXFL 529 NSCLC): > 64.6 µM | TGI (COLO 205 colon): > 69.8 µM | TGI (SK-MEL-2 melanoma): > 100 µM | TGI (KM12 colon): > 100 µM | TGI (SN12C renal): > 100 µM | TGI (HT29 colon): > 100 µM | TGI (SF-295 CNS): > 100 µM | TGI (SK-MEL-28 melanoma): > 93.8 µM | TGI (SK-MEL-5 melanoma): 33.9 µM | TGI (DMS 114 small cell lung): 21.7 µM | TGI (LOX IMVI melanoma): 24.9 µM | TGI (M14 melanoma): 28 µM | TGI (U251 CNS): > 57.2 µM | TGI (RXF-631 renal): > 84.1 µM | TGI (HOP-18 NSCLC): > 100 µM | TGI (CAKI-1 renal): > 78.7 µM | TGI (TK-10 renal): > 100 µM | TGI (CCRF-CEM leukemia): 34.8 µM | TGI (SF-539 CNS): > 100 µM | TGI (OVCAR-3 ovarian): > 57.7 µM | TGI (SNB-75 CNS): > 100 µM | TGI (OVCAR-4 ovarian): 28 µM | TGI (SW-620 colon): > 100 µM | TGI (KM20L2 colon): > 100 µM | TGI (SR leukemia): 41 µM | TGI (NCI-H522 lung): 36.8 µM | TGI (SNB-78 CNS): > 74 µM | TGI (UACC-257 melanoma): > 100 µM | TGI (HCC-2998 colon): > 100 µM | TGI (HL-60(TB) leukemia): 19.7 µM | TGI (MOLT-4 leukemia): 17 µM | TGI (EKVX NSCLC): > 80.7 µM | TGI (DLD-1 colon): > 100 µM | TGI (HCT-116 colon): > 100 µM | TGI (OVCAR-5 ovarian): > 100 µM | TGI (SK-OV-3 ovarian): > 100 µM | TGI (UACC-62 melanoma): > 65.8 µM | TGI (786-0 renal): 74 µM | TGI (OVCAR-8 ovarian): 59.8 µM | TGI (SNB-19 CNS): > 100 µM | TGI (UO-31 renal): > 100 µM | TGI (HCT-15 colon): > 59 µM | TGI (A549 NSCLC): > 100 µM | TGI (XF 498 CNS): 26.7 µM | TGI (DMS 273 small cell lung): > 100 µM | TGI (MALME-3M melanoma): 34.4 µM | TGI (NCI-H23 lung): 67.3 µM | TGI (IGROV1 ovarian): 49.3 µM | TGI (M19-MEL melanoma): > 57.8 µM | TGI (A498 renal): > 100 µM | TGI (RPMI-8226 leukemia): > 74.6 µM | TGI (HOP-62 NSCLC): > 100 µM | TGI (RXF 393 renal): 49.3 µM | TGI (SF-268 CNS): > 100 µM | TGI (HOP-92 NSCLC): 63.4 µM | TGI (ACHN renal): > 100 µM | TGI (NCI-H460 lung): > 100 µM | TGI (K-562 leukemia): > 64.5 µM
